Assay results as given in PubChem BioAssay (NCI).
“And” between values parts separate entries of the source, which are not always exact repeats. Identical values can stand only once.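 Compound exposure: 48 hours, 5 concentrations, 96-well plates. GI50: concentration for 50% inhibition of growth. TGI denotes the concentration required for complete inhibition of growth.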

Columns and labels:
Assay in all cases: NCI-60 cell line screen, 48 h
RPMI-8226 leukemia = tested on: RPMI-8226 leukemia
ACHN renal = tested on: ACHN renal
OVCAR-8 ovarian = tested on: OVCAR-8 ovarian
NCI-H460 lung = tested on: NCI-H460 lung
COLO 205 colon = tested on: COLO 205 colon
MOLT-4 leukemia = tested on: MOLT-4 leukemia
SF-295 CNS = tested on: SF-295 CNS
TK-10 renal = tested on: TK-10 renal
MCF7 breast = tested on: MCF7 breast
OVCAR-4 ovarian = tested on: OVCAR-4 ovarian

| Structure (SMILES) | GI50 (RPMI-8226 leukemia) | TGI (RPMI-8226 leukemia) | GI50 (ACHN renal) | TGI (ACHN renal) | GI50 (OVCAR-8 ovarian) | TGI (OVCAR-8 ovarian) | GI50 (NCI-H460 lung) | TGI (NCI-H460 lung) | GI50 (COLO 205 colon) | GI50 (MOLT-4 leukemia) | TGI (MOLT-4 leukemia) | GI50 (SF-295 CNS) | TGI (SF-295 CNS) | GI50 (TK-10 renal) | TGI (TK-10 renal) | GI50 (MCF7 breast) [µM] | TGI (MCF7 breast) [µM] | GI50 (OVCAR-4 ovarian) | TGI (OVCAR-4 ovarian) | TGI (COLO 205 colon) [µM] |
| --- | --- | --- | --- | --- | --- | --- | --- | --- | --- | --- | --- | --- | --- | --- | --- | --- | --- | --- | --- | --- |
| COc1ccc(-c2ccc3ncc4c(c3c2)n(-c2ccc(N3CCNCC3)c(C(F)(F)F)c2)c(=O)n4C)cn1 | < 0.01 µM and 0.00374 µM | 0.163 µM and 0.0549 µM | < 0.01 µM and 0.00959 µM | 1.1 µM and 0.782 µM | < 0.01 µM and 0.00948 µM | 0.332 µM and 0.396 µM | < 0.01 µM and 0.00389 µM | 0.223 µM and 0.141 µM | < 0.01 µM and 0.00994 µM | < 0.01 µM and 0.00654 µM | 0.186 µM and 0.143 µM | < 0.01 µM and 0.00331 µM | 0.0284 µM and 0.032 µM | < 0.01 µM and 0.00865 µM | 0.0379 µM and 0.109 µM | 0.0035 | 0.0793 | < 0.01 µM and 0.0029 µM | 0.0207 µM and 0.0252 µM |  |
| Nc1ccc(-c2ccc(Nc3cc(S(=O)(=O)O)c(N)c4c3C(=O)c3ccccc3C4=O)cc2)c(S(=O)(=O)O)c1 |  | > 100 µM |  | > 100 µM |  | > 100 µM |  | > 100 µM |  |  | > 100 µM |  | > 100 µM |  | > 100 µM |  | > 100 |  | > 100 µM | > 100 |
| CC(C)[C@](O)(C(=O)OCC1=CC[N+]2([O-])CC[C@@H](O)[C@@H]12)[C@H](C)O (some centres not stated) |  | > 10000 µM |  | > 10000 µM |  | > 7940 µM |  | > 9540 µM |  |  | > 10000 µM |  | > 10000 µM |  | > 10000 µM |  | > 10000 |  | > 10000 µM | > 10000 |
| CSC1=Nc2c(c(C)c(-c3ccccc3)n2CCCCl)C2=NC(=O)CN12 | 3.68 µM | 66.5 µM | 9.48 µM | 37.7 µM | 16.3 µM | 72.8 µM | 3.7 µM | 15 µM | 4.13 µM | 3.93 µM | > 100 µM | 4.11 µM | 26.8 µM | 8.45 µM | 78.3 µM | 3.42 | 16.5 | 6.74 µM | 44.9 µM | 15.2 |
| Cc1coc2c1CC1OC1(C)CCC1OC1(C)C2 (configuration not stated) |  | > 100 µM |  | > 100 µM |  | > 100 µM |  | > 100 µM |  |  | > 100 µM |  | > 100 µM |  | > 100 µM |  | > 100 |  | > 100 µM | > 100 |
| C=CC(=O)NCCOc1cccc(Nc2cc(NCCCNC(=O)C3CCC3)c(Br)cn2)c1 | 1.66 µM | > 25 µM | 0.75 µM | > 25 µM | 1.82 µM | > 25 µM | 1.12 µM | 4.53 µM | 0.632 µM | 1.37 µM | > 25 µM | 1.34 µM | 23.4 µM | 1.6 µM | 7.77 µM | 0.781 | 10.3 | 1.26 µM | 10.7 µM | 2.1 |
| [C-]#[O+].[C-]#[O+].[Ir].[O-]c1ccc2ccccc2c1N=Nc1ccccc1 |  | 45.2 µM |  | 13.8 µM | 13.6 µM | 38.7 µM |  | > 70.6 µM |  |  | 50.2 µM | 45.9 µM | > 72.1 µM |  | 17.3 µM |  | 21 |  | 24.7 µM | 3.7 |
| C/C(=C1/N=C(c2ccccc2)OC1=O)c1ccc(C)cc1 |  | > 100 µM |  | > 100 µM |  | > 100 µM |  | > 100 µM |  |  | > 100 µM |  | > 100 µM |  | > 100 µM |  | > 100 |  | > 100 µM | > 100 |
| CC(C)(C)CC(C)(C)N(CSc1ccc(Cl)cc1)CSc1ccc(Cl)cc1 | 2.17 µM | 5.11 µM | 2.56 µM | 11.4 µM | 1.74 µM | 7.57 µM | 0.829 µM | 8.38 µM | 2.15 µM | 0.841 µM | 5.09 µM | 0.316 µM | 1.33 µM |  |  | 2.2 | 10.2 | 1.74 µM | 9.88 µM | 4.19 |
| COc1cc([N+](=O)[O-])c(S(=O)(=O)O)cc1N |  | > 100 µM |  | > 100 µM |  | > 100 µM |  | > 100 µM |  |  | > 100 µM |  |  |  | > 100 µM |  | > 100 |  | > 100 µM | > 100 |
| COc1ccc2c(c1)CC[C@@H]1[C@@H]2CC[C@]2(C)c3[nH]ncc3C[C@@H]12 | 10.2 µM | 32.8 µM | 19 µM | > 50 µM | 15.6 µM | > 50 µM |  |  | 14.5 µM | 1.8 µM | 40.6 µM | 12.6 µM | 27.5 µM | 27 µM | > 50 µM | 13.4 | 35.7 | 15.4 µM | > 50 µM | > 50 |
| O=[N+]([O-])c1cccc(/C=C/c2ccccn2)c1 | 40.2 µM | > 100 µM | 5.81 µM | > 100 µM | 45 µM | > 100 µM | 34.5 µM | > 100 µM | 24.3 µM | > 100 µM | > 100 µM | 35.6 µM | > 100 µM |  |  | 0.569 | > 100 | 18.8 µM | > 100 µM | 95.5 |
| FC(F)(F)c1[nH]ncc1-c1nc2c(N3CCCCC3)cc3[nH]ncc3c2c2c1CCCC2 | 0.534 µM | 2.44 µM | 0.498 µM | > 28 µM | 0.825 µM | > 50 µM | 0.49 µM | 1.9 µM |  | 0.744 µM | 2.78 µM | 0.857 µM | 3.16 µM | 0.615 µM | > 50 µM | 0.514 | > 15.4 | 1.42 µM | > 15.3 µM |  |
